Among the data in ChEMBL document CHEMBL4402607, “Molecular Basis for Omapatrilat and Sampatrilat Binding to Neprilysin-Implications for Dual Inhibitor Design with Angiotensin-Converting Enzyme” (J Med Chem, 2020) are IC50 and Ki values, retold here.

Test [1] has as its target Neprilysin (Homo sapiens, UniProt P08473). Briefly: Inhibition of NEP (unknown origin).
Test [2] concerns the target T1, Angiotensin-converting enzyme (Homo sapiens, UniProt P12821). The experiment in a line: Inhibition of human somatic ACE N-domain soluble form (1 to 629 residues) expressed in CHO cells using Z-FHL as substrate preincubated with enzyme followed by substrate addition by fluorescence based assay.
For test [3], the target named is T1, Angiotensin-converting enzyme. The experiment in a line: Inhibition of human testis ACE C-domain lacking unique O-glycosylated region, transmembrane anchor and cytoplasmic tail expressed in CHO cells using Z-FHL as substrate by fluorescence based assay.
Test [4] shares this target. The experiment in a line: Inhibition of human ACE using MCA-RPPGFSAFK-Dnp-OH as substrate by fluorescence based analysis.
For test [5], the target named is T2, Neprilysin (Rattus norvegicus, UniProt P07861).
T2 sequence (P07861 whole entry): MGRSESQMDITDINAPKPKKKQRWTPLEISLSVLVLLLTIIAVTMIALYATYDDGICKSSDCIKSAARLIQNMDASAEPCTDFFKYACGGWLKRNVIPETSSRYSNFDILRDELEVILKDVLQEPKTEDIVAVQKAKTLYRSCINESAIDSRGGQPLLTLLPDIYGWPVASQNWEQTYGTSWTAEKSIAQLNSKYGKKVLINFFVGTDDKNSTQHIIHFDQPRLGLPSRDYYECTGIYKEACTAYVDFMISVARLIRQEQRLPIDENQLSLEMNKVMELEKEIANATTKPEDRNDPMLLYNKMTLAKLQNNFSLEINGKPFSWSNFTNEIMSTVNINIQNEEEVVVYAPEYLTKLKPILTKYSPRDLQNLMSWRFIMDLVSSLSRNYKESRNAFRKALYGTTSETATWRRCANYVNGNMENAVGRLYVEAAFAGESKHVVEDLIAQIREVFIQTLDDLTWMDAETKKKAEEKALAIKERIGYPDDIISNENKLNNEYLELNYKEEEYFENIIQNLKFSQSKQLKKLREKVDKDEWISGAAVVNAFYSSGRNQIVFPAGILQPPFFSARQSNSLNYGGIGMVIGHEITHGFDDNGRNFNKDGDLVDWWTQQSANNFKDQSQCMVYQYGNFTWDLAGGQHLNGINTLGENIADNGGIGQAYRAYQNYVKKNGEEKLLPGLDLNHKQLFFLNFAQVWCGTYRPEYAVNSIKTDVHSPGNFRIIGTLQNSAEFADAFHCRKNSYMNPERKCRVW
The experiment in a line: Inhibition of rat kidney NEP using glutaryl-Ala-Ala-beta-naphthylamide as substrate preincubated with enzyme for 15 mins followed by substrate addition.

Test [6] is described as follows: Inhibition of rabbit lung ACE using hippuryl-His-Leu as substrate preincubated with enzyme for 15 mins followed by substrate addition. The arrangement: species or system Oryctolagus cuniculus.

T1 sequence (P12821 whole entry, the tested form may be a part): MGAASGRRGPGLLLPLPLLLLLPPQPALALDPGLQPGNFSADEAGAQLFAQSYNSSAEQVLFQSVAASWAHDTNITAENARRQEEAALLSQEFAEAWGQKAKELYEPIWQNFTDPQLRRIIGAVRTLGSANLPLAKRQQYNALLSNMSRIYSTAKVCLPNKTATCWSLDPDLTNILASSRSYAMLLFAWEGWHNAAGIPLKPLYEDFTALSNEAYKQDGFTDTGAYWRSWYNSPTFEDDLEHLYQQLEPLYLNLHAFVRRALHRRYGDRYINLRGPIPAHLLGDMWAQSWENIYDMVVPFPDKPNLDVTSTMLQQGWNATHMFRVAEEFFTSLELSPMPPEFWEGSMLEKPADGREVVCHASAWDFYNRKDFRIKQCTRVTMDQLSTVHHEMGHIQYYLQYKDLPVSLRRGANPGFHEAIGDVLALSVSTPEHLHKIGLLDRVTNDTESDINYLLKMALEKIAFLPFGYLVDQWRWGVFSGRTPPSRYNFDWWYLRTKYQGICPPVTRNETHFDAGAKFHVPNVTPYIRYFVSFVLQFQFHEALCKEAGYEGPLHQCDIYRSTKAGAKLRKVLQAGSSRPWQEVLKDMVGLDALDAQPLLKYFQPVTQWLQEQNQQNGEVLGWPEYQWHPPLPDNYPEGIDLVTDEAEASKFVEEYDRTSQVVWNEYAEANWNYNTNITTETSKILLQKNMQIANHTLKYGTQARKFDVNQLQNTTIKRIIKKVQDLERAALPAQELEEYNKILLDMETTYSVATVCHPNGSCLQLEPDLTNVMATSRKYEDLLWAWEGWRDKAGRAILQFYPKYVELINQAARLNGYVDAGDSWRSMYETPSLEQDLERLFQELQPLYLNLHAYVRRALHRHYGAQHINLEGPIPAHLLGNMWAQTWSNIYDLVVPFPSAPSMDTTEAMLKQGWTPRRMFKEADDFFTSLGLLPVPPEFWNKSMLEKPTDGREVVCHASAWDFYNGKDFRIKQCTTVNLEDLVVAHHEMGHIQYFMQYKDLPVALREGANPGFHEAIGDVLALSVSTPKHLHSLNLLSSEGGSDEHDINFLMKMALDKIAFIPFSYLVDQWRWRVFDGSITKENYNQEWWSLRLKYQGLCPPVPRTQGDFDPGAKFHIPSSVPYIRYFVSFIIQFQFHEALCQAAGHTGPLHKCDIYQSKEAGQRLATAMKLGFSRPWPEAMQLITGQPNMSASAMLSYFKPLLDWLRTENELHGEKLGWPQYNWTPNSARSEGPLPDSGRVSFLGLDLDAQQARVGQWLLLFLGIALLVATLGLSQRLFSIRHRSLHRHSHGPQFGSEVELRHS
Neprilysin (Homo sapiens, UniProt P08473), sequence (P08473 whole entry, the tested form may be a part): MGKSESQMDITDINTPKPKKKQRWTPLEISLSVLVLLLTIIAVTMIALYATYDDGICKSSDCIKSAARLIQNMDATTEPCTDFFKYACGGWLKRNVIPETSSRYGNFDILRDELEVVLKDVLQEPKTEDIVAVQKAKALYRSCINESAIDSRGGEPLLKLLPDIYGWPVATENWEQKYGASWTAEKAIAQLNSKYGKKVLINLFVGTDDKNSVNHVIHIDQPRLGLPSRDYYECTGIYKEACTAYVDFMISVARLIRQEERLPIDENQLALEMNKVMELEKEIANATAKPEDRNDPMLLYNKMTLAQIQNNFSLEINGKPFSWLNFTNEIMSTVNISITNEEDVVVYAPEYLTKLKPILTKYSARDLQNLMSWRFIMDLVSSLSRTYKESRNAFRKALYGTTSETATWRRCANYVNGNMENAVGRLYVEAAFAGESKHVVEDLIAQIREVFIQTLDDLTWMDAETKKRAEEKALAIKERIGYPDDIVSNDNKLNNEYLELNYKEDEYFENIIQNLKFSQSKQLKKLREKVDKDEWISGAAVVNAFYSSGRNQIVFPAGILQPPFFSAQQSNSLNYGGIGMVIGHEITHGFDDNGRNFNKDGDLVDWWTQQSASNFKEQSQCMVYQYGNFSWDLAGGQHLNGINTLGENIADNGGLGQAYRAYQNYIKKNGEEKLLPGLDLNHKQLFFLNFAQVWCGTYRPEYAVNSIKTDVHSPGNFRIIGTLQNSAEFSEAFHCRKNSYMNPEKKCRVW

A word on the IC50: it is the concentration that gives 50% inhibition. A high value points to a need for much substance. The Ki is the dissociation constant of the complex between target and ligand, obtained from inhibition or displacement. High values mean a looser hold on the target, low ones a stronger hold on the target. Compound `CS(=O)(=O)N[C@@H](CCCCN)C(=O)NC[C@H](CC1(C(=O)N[C@@H](Cc2ccc(O)cc2)C(=O)O)CCCC1)C(=O)O` gave an IC50 in test [1] of 0.008 µM. Also, the inhibition constant Ki in test [2] came out at 0.172 µM; in test [3], 0.0138 µM.

With `CC(=O)N[C@@H](CC(=O)O)C(=O)NC[C@H](CC1(C(=O)N[C@@H](Cc2ccc(O)cc2)C(=O)O)CCCC1)C(=O)O`, the values for the inhibition constant Ki in test [2] and in test [3] were 10.6 µM and 7.4 µM, respectively.

In test [4], `C[C@H](C[C@@H](Cc1ccc(-c2ccccc2)cc1)NC(=O)CCC(=O)O)C(=O)O` [LBQ-657] displayed an IC50 greater than 100 µM.

`CC(C)C[C@H](NP(=O)(O)O[C@@H]1O[C@@H](C)[C@H](O)[C@@H](O)[C@H]1O)C(=O)N[C@@H](Cc1c[nH]c2ccccc12)C(=O)O` [PHOSPHORAMIDON]: the results for the half-inhibitory concentration (IC50) in test [5] and in test [6] were 0.034 µM and 78 µM, respectively.
